In US10800791B2, “Triazole ACC inhibitors and uses thereof” (Gilead Apollo, LLC, priority 2015, dated 2020):
Values after ≈ are worked out from the molar mass of the structure shown. Where two headings read alike, the source gives them in different places.

How the values were obtained:
human (hACC2) = human (hACC2) (Homo sapiens, UniProt O00763); experiment: In vitro ACC inhibition assay (ADP-Glo), hACC2; type: biochemical; conditions: 5 nM ACC2, 20 μM ATP, 20 μM acetyl-CoA
Procedure: The detailed procedure is as follows. […] 10 μL ADP glo reagent was added. […] 20 μL kinase detection reagent was added.

C. krusei = experiment: Antifungal Activity Assay (broth microtiter MIC), C. krusei; type: cell-based, Candida krusei; conditions: Pichia kudriavzevii, ATCC6258, 48 h
Summary of the method: (§1)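 Endpoint: lowest concentration visibly inhibiting growth relative to control after 48 h. Inoculum of 2.5×10^3 CFU/mL final in RPMI 1640+MOPS, prepared from overnight 35° C agar cultures; test compounds diluted in water to 128 μg/mL before plating.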

C. parapsilosis = experiment: Antifungal Activity Assay (broth microtiter MIC), C. parapsilosis; type: cell-based, Candida parapsilosis; conditions: Lodderomyces parapsilosis, ATCC22019, 48 h
Summary of the method: as §1

Botrtyis cinerea (Bc) = experiment: Growth inhibition assay of fungal pathogens, Bc; type: cell-based; conditions: 48 h
Summary of the method: (§2)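 Spores diluted in 17% V8 liquid media and incubated with compound at final 50, 10, 2 ppm or 2, 0.4, 0.08 ppm (2% DMSO). OD600 plus visual ratings at 24 and 48 hours, blank-subtracted; percent growth inhibition from 48 h readings relative to 2% DMSO control.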

[1] = tested on: Fusarium moniliforme (Fm); experiment: Growth inhibition assay of fungal pathogens, Fm; type: cell-based; conditions: for IC90: Fusarium verticillioides, 48 h, read-out: Concentration at 90% Inhibition Fm
Summary of the method: as §2

[2] = tested on: Fusarium virguliforme (Fv); experiment: Growth inhibition assay of fungal pathogens, Fv; type: cell-based; conditions: 48 h
Summary of the method: as §2

[3] = tested on: Phytophthora capsici (Pc); experiment: Growth inhibition assay of fungal pathogens, Pc; type: cell-based; conditions: 48 h
Summary of the method: as §2

Rhizoctonia solani (Rs) = experiment: Growth inhibition assay of fungal pathogens, Rs; type: cell-based; conditions: 48 h
Septoria tritici (St) = experiment: Growth inhibition assay of fungal pathogens, St; type: cell-based; conditions: Zymoseptoria tritici, 48 h
Summary of the method: as §2

fungal (fACC2) = fungal (fACC2) (UniProt Q00955); conditions: read-out: fACC2 (in vitro ACC2 Inhibition Assay, IC50), ADP-Glo, 5 nM ACC2, 20 μM ATP, 20 μM acetyl-CoA
Sequence of fungal (fACC2) (Q00955 whole entry): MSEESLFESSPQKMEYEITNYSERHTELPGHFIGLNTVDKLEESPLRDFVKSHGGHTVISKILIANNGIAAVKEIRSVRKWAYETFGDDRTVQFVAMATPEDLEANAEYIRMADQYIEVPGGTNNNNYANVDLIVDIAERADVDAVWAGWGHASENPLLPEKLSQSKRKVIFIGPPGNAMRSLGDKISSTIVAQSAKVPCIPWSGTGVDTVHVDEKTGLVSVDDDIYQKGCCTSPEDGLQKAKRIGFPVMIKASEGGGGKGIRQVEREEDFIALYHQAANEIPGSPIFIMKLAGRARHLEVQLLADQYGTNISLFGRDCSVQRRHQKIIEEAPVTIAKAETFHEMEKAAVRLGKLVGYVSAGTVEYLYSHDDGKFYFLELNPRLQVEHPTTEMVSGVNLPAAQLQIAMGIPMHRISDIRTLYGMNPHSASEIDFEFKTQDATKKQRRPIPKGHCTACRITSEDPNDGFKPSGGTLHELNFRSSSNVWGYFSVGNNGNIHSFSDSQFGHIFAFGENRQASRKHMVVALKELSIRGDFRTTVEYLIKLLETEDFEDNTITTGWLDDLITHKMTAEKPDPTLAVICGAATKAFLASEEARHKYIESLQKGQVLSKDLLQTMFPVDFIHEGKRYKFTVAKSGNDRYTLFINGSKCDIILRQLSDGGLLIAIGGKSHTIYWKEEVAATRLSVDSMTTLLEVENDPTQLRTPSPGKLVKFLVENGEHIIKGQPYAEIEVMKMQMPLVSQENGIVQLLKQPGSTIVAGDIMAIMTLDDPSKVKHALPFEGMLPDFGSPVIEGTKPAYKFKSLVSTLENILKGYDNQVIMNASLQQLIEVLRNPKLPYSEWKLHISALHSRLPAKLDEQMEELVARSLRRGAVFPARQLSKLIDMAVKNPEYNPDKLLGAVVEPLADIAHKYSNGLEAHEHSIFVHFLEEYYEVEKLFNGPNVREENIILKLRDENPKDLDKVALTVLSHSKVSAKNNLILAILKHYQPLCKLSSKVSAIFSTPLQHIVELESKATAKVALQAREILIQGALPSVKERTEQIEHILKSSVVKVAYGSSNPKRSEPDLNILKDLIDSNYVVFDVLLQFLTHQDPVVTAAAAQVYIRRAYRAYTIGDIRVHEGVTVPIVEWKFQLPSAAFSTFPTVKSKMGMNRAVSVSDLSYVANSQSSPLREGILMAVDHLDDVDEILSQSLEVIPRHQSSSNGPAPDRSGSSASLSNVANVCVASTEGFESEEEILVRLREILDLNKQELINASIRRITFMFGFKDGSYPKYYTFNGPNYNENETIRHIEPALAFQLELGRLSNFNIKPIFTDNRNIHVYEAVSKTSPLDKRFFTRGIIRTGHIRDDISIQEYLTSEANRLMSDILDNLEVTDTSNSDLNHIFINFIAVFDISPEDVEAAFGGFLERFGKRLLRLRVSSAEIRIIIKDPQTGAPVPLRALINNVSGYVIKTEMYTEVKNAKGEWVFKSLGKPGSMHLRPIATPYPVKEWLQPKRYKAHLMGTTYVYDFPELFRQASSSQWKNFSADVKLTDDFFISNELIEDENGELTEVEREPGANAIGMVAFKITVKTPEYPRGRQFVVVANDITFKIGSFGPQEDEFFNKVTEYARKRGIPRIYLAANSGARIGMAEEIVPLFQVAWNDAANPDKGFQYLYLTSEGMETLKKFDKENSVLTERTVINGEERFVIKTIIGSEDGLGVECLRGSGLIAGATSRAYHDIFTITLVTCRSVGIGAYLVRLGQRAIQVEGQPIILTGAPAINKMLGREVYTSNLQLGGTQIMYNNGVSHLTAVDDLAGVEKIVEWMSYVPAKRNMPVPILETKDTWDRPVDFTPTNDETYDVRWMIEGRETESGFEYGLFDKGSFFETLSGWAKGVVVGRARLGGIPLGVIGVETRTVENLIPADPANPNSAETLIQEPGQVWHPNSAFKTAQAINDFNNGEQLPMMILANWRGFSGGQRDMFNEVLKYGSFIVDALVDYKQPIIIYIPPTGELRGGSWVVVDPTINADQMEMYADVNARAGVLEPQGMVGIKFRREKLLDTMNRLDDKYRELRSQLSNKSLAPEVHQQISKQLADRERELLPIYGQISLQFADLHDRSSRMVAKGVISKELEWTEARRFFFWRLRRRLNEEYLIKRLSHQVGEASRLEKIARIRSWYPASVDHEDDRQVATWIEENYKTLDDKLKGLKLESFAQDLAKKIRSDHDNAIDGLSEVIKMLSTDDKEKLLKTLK

[4] = Table 3a, ATCC 6258, 3 replicates, MIC recorded at 48 h, read-out: MIC, C. krusei ATCC 6258
[5] = Table 3b (additional results), ATCC 6258, 3 replicates, MIC recorded at 48 h, read-out: MIC, C. krusei ATCC 6258
[6] = Table 3a, ATCC 22019, 3 replicates, MIC recorded at 48 h, read-out: MIC, C. parapsilosis ATCC 22019
[7] = Table 3b (additional results), ATCC 22019, 3 replicates, MIC recorded at 48 h, read-out: MIC, C. parapsilosis ATCC 22019
[8] = Botrtyis cinerea, growth inhibition at 48 hours vs 2% DMSO control, read-out: Concentration at 90% Inhibition Bc
[9] = Botrtyis cinerea, growth inhibition vs 2% DMSO control at 48 hours, read-out: Concentration at 90% Inhibition Bc
[10] = Fusarium moniliforme, growth inhibition at 48 hours vs 2% DMSO control
[11] = Fusarium moniliforme, growth inhibition vs 2% DMSO control at 48 hours
[12] = growth inhibition at 48 hours vs 2% DMSO control, read-out: Concentration at 90% Inhibition Fv
[13] = growth inhibition vs 2% DMSO control at 48 hours, read-out: Concentration at 90% Inhibition Fv
[14] = growth inhibition at 48 hours vs 2% DMSO control, read-out: Concentration at 90% Inhibition Pc
[15] = growth inhibition vs 2% DMSO control at 48 hours, read-out: Concentration at 90% Inhibition Pc
[16] = mycelial plugs, growth inhibition at 48 hours vs 2% DMSO control, read-out: Concentration at 90% Inhibition Rs
[17] = mycelial plugs, growth inhibition vs 2% DMSO control at 48 hours, read-out: Concentration at 90% Inhibition Rs
[18] = Septoria tritici, growth inhibition at 48 hours vs 2% DMSO control, read-out: Concentration at 90% Inhibition St
[19] = Septoria tritici, growth inhibition vs 2% DMSO control at 48 hours, read-out: Concentration at 90% Inhibition St

Sequence of human (hACC2) (O00763 whole entry): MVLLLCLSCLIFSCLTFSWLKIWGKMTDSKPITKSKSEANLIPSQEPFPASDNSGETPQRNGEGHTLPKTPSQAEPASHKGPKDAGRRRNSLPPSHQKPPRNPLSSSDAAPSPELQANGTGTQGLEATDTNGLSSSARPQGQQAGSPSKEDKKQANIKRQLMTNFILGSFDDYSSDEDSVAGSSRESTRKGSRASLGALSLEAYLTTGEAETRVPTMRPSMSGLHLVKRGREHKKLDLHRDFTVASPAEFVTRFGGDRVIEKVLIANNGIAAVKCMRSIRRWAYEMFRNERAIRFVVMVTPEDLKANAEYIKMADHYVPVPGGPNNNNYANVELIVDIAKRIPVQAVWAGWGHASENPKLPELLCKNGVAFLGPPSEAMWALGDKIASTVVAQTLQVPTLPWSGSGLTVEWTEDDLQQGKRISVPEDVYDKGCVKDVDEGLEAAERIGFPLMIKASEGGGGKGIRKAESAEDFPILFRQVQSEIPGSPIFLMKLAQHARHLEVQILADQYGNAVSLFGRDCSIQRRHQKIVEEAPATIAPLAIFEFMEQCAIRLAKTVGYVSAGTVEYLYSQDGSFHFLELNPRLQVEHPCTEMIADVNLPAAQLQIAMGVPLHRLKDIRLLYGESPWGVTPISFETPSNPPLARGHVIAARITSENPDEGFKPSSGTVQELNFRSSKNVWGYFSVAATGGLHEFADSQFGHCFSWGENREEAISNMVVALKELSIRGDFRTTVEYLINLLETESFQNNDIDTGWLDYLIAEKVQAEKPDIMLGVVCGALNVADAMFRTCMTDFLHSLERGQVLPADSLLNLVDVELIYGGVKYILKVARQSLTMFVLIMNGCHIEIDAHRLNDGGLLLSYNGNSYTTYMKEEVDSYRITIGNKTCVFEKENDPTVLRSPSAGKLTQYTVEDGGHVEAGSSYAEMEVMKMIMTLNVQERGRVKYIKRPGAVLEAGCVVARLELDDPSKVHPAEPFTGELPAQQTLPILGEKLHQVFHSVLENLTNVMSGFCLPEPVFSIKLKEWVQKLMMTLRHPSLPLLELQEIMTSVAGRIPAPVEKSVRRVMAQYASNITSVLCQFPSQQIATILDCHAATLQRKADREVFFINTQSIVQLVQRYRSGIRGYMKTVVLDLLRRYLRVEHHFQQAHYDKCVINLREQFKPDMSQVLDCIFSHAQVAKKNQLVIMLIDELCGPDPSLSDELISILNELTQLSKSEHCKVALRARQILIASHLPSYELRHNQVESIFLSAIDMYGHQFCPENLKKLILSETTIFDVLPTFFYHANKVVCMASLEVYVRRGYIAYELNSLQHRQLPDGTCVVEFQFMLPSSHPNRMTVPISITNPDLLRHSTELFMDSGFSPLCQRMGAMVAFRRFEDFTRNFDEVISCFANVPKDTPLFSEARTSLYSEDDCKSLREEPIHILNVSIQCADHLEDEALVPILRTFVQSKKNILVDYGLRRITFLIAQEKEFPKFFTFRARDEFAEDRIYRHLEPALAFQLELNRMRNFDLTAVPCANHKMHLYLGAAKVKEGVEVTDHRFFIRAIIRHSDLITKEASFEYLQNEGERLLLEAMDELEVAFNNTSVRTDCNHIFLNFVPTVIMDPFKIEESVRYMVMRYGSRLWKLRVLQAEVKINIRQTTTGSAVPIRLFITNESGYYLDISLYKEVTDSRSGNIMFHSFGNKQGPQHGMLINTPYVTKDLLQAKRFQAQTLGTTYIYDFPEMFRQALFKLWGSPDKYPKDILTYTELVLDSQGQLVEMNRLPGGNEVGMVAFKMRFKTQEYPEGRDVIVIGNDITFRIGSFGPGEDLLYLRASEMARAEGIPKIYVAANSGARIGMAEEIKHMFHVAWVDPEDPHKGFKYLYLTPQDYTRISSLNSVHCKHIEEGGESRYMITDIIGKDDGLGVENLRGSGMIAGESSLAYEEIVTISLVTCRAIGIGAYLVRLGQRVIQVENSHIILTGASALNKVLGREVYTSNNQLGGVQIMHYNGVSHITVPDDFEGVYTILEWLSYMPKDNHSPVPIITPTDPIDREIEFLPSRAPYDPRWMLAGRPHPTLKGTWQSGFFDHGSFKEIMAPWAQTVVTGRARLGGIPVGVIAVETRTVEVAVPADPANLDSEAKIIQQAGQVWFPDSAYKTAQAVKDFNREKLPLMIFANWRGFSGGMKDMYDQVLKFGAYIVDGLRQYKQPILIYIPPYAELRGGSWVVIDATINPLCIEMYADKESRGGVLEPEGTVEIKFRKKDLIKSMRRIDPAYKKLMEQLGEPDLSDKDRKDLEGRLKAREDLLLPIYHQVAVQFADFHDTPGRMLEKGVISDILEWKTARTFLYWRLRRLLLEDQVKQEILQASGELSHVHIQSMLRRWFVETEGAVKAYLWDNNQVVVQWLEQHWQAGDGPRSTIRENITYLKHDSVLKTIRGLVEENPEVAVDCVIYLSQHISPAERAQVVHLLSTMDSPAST

| SMILES | IC50 (human (hACC2); Table 2a) [nM] | IC50 (human (hACC2); Table 2b, additional results) [nM] | MIC (C. krusei; [4]) [µg/mL] | MIC (C. krusei; [5]) [µg/mL] | MIC (C. parapsilosis; [6]) [µg/mL] | MIC (C. parapsilosis; [7]) [µg/mL] | IC90 (Botrtyis cinerea (Bc); [8]) [µg/mL] | IC90 (Botrtyis cinerea (Bc); [9]) [µg/mL] | IC90 [1, 10] [µg/mL] | IC90 [1, 11] [µg/mL] | IC90 [2, 12] [µg/mL] | IC90 [2, 13] [µg/mL] | IC90 [3, 14] [µg/mL] | IC90 [3, 15] [µg/mL] | IC90 (Rhizoctonia solani (Rs); [16]) [µg/mL] | IC90 (Rhizoctonia solani (Rs); [17]) [µg/mL] | IC90 (Septoria tritici (St); [18]) [µg/mL] | IC90 (Septoria tritici (St); [19]) [µg/mL] | IC50 (fungal (fACC2); Table 2a) [nM] | IC50 (fungal (fACC2); Table 2b, additional results) [nM] | further results |
| --- | --- | --- | --- | --- | --- | --- | --- | --- | --- | --- | --- | --- | --- | --- | --- | --- | --- | --- | --- | --- | --- |
| COc1ccc(F)cc1[C@H](Cn1c(=O)n(C(C)(C)C(=O)N2CC=CC2)c(=O)c2c(C)c(-n3nccn3)sc21)OC(C)C [Compound I-51, (R)-3-(1-(2,5-dihydro-1H-pyrrol-1-yl)-2-methyl-1-oxopropan-2-yl)-1-(2-(5-fluoro-2-methoxyphenyl)-2-isopropoxyethyl)-5-methyl-6-(2H-1,2,3-triazol-2-yl)thieno[2,3-d]pyrimidine-2,4(1H,3H)-dione] | 5 to 10 | 5 to 10 | 0.25 to 1 (≈ 0.419 to 1.68 µM) | 0.25 to 1 (≈ 0.419 to 1.68 µM) | 1.1 to 2 (≈ 1.84 to 3.35 µM) | > 4.01 | 0.4 (≈ 0.67 µM) | 0.4 (≈ 0.67 µM) | 0.08 (≈ 0.134 µM) | 0.08 (≈ 0.134 µM) | 0.4 (≈ 0.67 µM) | 0.4 (≈ 0.67 µM) | > 50 | > 50 | 0.4 (≈ 0.67 µM) | 0.4 (≈ 0.67 µM) | 2 (≈ 3.35 µM) | 10 (≈ 16.8 µM) | 1 to 5 | 1 to 5 | – |
| COc1ccc(F)cc1[C@H](Cn1c(=O)n(C(C)(C)C(=O)NCC#N)c(=O)c2c(C)c(-n3nccn3)sc21)OC(C)C [Compound I-52, (R)—N-(cyanomethyl)-2-(1-(2-(5-fluoro-2-methoxyphenyl)-2-isopropoxyethyl)-5-methyl-2,4-dioxo-6-(2H-1,2,3-triazol-2-yl)-1,4-dihydro-thieno[2,3-d]pyrimidin-3(2H)-yl)-2-methylpropanamide] | 10 to 40 | 10 to 40 | – | – | – | – | – | – | – | – | – | – | – | – | – | – | – | – | 1 to 5 | 1 to 5 | MIC (C. krusei; read-out: MIC, C. krusei ATCC 6258, Table 3a, 3 replicates, MIC recorded at 48 h): 2.1 to 4 µg/mL (≈ 3.6 to 6.85 µM); MIC (C. krusei; read-out: MIC, C. krusei ATCC 6258, Table 3b (additional results), 3 replicates, MIC recorded at 48 h): 0.25 to 1 µg/mL (≈ 0.428 to 1.71 µM); MIC (C. parapsilosis; read-out: MIC, C. parapsilosis ATCC 22019, Table 3a, 3 replicates, MIC recorded at 48 h): 2.1 to 4 µg/mL (≈ 3.6 to 6.85 µM); MIC (C. parapsilosis; read-out: MIC, C. parapsilosis ATCC 22019, Table 3b (additional results), 3 replicates, MIC recorded at 48 h): 2.01 to 4 µg/mL (≈ 3.44 to 6.85 µM); IC90 (Botrtyis cinerea (Bc); read-out: Concentration at 90% Inhibition Bc, Botrtyis cinerea, growth inhibition at 48 hours vs 2% DMSO control): 2 µg/mL (≈ 3.43 µM); IC90 (Botrtyis cinerea (Bc); read-out: Concentration at 90% Inhibition Bc, Botrtyis cinerea, growth inhibition vs 2% DMSO control at 48 hours): 2 µg/mL (≈ 3.43 µM); Concentration at 90% Inhibition Fm [1, 10]: B (compound concentration of 2.0 ppm at 90% inhibition of fungal pathogens); IC90 [1]: 2 µg/mL (≈ 3.43 µM); IC90 ([2]; read-out: Concentration at 90% Inhibition Fv, Fusarium virguliforme, growth inhibition at 48 hours vs 2% DMSO control): 2 µg/mL (≈ 3.43 µM); IC90 ([2]; read-out: Concentration at 90% Inhibition Fv, Fusarium virguliforme, growth inhibition vs 2% DMSO control at 48 hours): 2 µg/mL (≈ 3.43 µM); IC90 ([3]; read-out: Concentration at 90% Inhibition Pc, Phytophthora capsici, growth inhibition at 48 hours vs 2% DMSO control): > 50 µg/mL; IC90 ([3]; read-out: Concentration at 90% Inhibition Pc, Phytophthora capsici, growth inhibition vs 2% DMSO control at 48 hours): > 50 µg/mL; IC90 (Rhizoctonia solani (Rs); read-out: Concentration at 90% Inhibition Rs, Rhizoctonia solani, mycelial plugs, growth inhibition at 48 hours vs 2% DMSO control): > 50 µg/mL; IC90 (Rhizoctonia solani (Rs); read-out: Concentration at 90% Inhibition Rs, Rhizoctonia solani, mycelial plugs, growth inhibition vs 2% DMSO control at 48 hours): > 50 µg/mL; IC90 (Septoria tritici (St); read-out: Concentration at 90% Inhibition St, Septoria tritici, growth inhibition at 48 hours vs 2% DMSO control): > 50 µg/mL; IC90 (Septoria tritici (St); read-out: Concentration at 90% Inhibition St, Septoria tritici, growth inhibition vs 2% DMSO control at 48 hours): > 50 µg/mL |
| Cc1c(-n2nccn2)sc2c1c(=O)n(C(C)(C)C(=O)NC(C)C)c(=O)n2C[C@H](OC(C)C)c1cc(F)ccc1OCCO [Compound I-53, (R)-2-(1-(2-(5-fluoro-2-(2-hydroxyethoxy)phenyl)-2-isopropoxyethyl)-5-methyl-2,4-dioxo-6-(2H-1,2,3-triazol-2-yl)-1,4-dihydrothieno[2,3-d]pyrimidin-3(2H)-yl)-N-isopropyl-2-methylpropanamide] | 10 to 40 | 10 to 40 | 0.25 to 1 (≈ 0.405 to 1.62 µM) | 0.06 to 0.249 (≈ 0.0973 to 0.404 µM) | 0.25 to 1 (≈ 0.405 to 1.62 µM) | 1.01 to 2 (≈ 1.64 to 3.24 µM) | 0.4 (≈ 0.649 µM) | 0.4 (≈ 0.649 µM) | 0.08 (≈ 0.13 µM) | 0.08 (≈ 0.13 µM) | 0.4 (≈ 0.649 µM) | 0.4 (≈ 0.649 µM) | > 50 | > 50 | 0.08 (≈ 0.13 µM) | 0.08 (≈ 0.13 µM) | > 50 | > 50 | 1 to 5 | 1 to 5 | – |
| COCCOc1ccc(F)cc1[C@H](Cn1c(=O)n(C(C)(C)C(=O)NC(C)C)c(=O)c2c(C)c(-n3nccn3)sc21)OC(C)C [Compound I-54, (R)-2-(1-(2-(5-fluoro-2-(2-methoxyethoxy)phenyl)-2-isopropoxyethyl)-5-methyl-2,4-dioxo-6-(2H-1,2,3-triazol-2-yl)-1,4-dihydrothieno[2,3-d]pyrimidin-3(2H)-yl)-N-isopropyl-2-methylpropanamide] | 10 to 40 | 10 to 40 | 0.25 to 1 (≈ 0.396 to 1.59 µM) | 0.25 to 1 (≈ 0.396 to 1.59 µM) | 0.25 to 1 (≈ 0.396 to 1.59 µM) | 1.01 to 2 (≈ 1.6 to 3.17 µM) | 0.4 (≈ 0.634 µM) | 0.4 (≈ 0.634 µM) | 0.08 (≈ 0.127 µM) | 0.08 (≈ 0.127 µM) | 0.4 (≈ 0.634 µM) | 0.4 (≈ 0.634 µM) | > 50 | > 50 | 0.4 (≈ 0.634 µM) | 0.4 (≈ 0.634 µM) | > 50 | > 50 | 1 to 5 | 1 to 5 | – |
| Cc1c(-n2nccn2)sc2c1c(=O)n(C(C)(C)C(=O)NC(C)C)c(=O)n2C[C@H](OC(C)C)c1cc(F)ccc1OCC1COC1 [Compound I-55, (R)-2-(1-(2-(5-fluoro-2-(oxetan-3-ylmethoxy)phenyl)-2-isopropoxyethyl)-5-methyl-2,4-dioxo-6-(2H-1,2,3-triazol-2-yl)-1,4-dihydrothieno[2,3-d]pyrimidin-3(2H)-yl)-N-isopropyl-2-methylpropanamide] | 10 to 40 | 10 to 40 | 0.25 to 1 (≈ 0.389 to 1.56 µM) | 1.01 to 2 (≈ 1.57 to 3.11 µM) | 0.25 to 1 (≈ 0.389 to 1.56 µM) | 1.01 to 2 (≈ 1.57 to 3.11 µM) | 0.4 (≈ 0.622 µM) | 0.4 (≈ 0.622 µM) | 0.08 (≈ 0.124 µM) | 0.08 (≈ 0.124 µM) | 0.4 (≈ 0.622 µM) | 0.4 (≈ 0.622 µM) | > 50 | > 50 | 0.4 (≈ 0.622 µM) | 0.4 (≈ 0.622 µM) | > 50 | > 50 | 1 to 5 | 1 to 5 | – |
